Consider 28 molecules from US12319655B2, “RAF kinase inhibitors and methods of use thereof” (Deciphera Pharmaceuticals, LLC, priority 2021, dated 2025).

The structures appear in SMILES notation. Like-named read-outs stand apart in the source and are kept apart here. Bounds are passed on as bounds.

In one assay the test system is Miapaca-2 cells. Kind of assay: MiaPaca-2 Cell Proliferation Assay (1). The conditions noted are these: Homo sapiens, MIA PaCa-2, single agent, read-out: MiaPaca2 (1) IC50. It counts as cell-based. The essentials: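 Resazurin was added after compound exposure and incubated 5-6 h, then fluorescence read at 540 nm excitation and 600 nm emission to give IC50.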
A further assay concerns WM3928 cells. Kind of assay: WM3928 Cell Proliferation Assay (1). Type of assay: cell-based. Summed up:
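IC50 was derived from resazurin fluorescence (ex 540, em 600 nm) after a 6–7 h dye incubation. Before that, cells had 67–72 h of compound exposure at 37 °C, 5% CO2.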

Assay [1] concerns the target C-Raf kinase (SEQ. ID NO: 3) (Homo sapiens (Human), UniProt P04049, Y340D/Y341D). Put plainly: Biochemical Assay for C-Raf (1). The following applies: Table J. The essentials: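 Coupled pyruvate kinase/LDH assay tracking NADH oxidation at 340 nm, with 0.43 nM C-Raf, 30.1 nM MEK and 1 mM ATP in pH 7.5 Tris buffer (15 mM MgCl2, 1% DMSO final). Read continuously for 6 h at 30 °C, rate taken from the 4–5 h window. IC50 from four-parameter fit of percent inhibition.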

In another assay the test system is A375 cells. Put plainly: A375 Cell Proliferation Assay (1). The conditions noted are these: Homo sapiens, A-375. It counts as cell-based. The essentials:
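Resazurin fluorescence (excitation 540 nm, emission 600 nm, after a further 5-6 h) gave IC50s from triplicate compound dilution series.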

Where [2] appears, read: biochemical assay (1), read-out: CRAF (1).
[3] abbreviates: assay version (1), read-out: CRAF (1) IC50.

Sequence of C-Raf kinase (SEQ. ID NO: 3) (P04049 307-648 Y340D/Y341D): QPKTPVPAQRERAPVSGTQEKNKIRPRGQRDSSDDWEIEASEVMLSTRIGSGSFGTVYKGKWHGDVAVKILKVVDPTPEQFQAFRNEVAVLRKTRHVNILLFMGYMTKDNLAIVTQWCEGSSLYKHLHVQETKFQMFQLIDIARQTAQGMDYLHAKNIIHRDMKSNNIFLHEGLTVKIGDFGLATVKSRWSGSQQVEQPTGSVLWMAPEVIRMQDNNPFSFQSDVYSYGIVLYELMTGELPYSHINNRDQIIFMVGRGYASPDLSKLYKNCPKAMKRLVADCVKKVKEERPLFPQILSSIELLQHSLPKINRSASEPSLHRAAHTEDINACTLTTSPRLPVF

`Cc1ccc(NC(=O)c2ccnc(C3CC3)c2)cc1-c1cncc(-c2cc(NC(=O)C3CC3)ncn2)c1` [Example 396]: the IC50 was 1 to 10 µM in the assay with Miapaca-2 cells, at most 0.1 µM in the assay on WM3928 cells, at most 0.1 µM in assay [1] (setting [2]) and at most 0.1 µM in the assay with A375 cells.
For `COC(=O)Nc1cc(-c2nccc(-c3cc(NC(=O)c4ccnc(C(C)(C)F)c4)ccc3C)n2)ccn1` [Example 391], the IC50 with Miapaca-2 cells was 1 to 10 µM; in the assay on WM3928 cells it was at most 0.1 µM; in assay [1] (setting [2]), at most 0.1 µM; in the assay on A375 cells, at most 0.1 µM.
As for `Cc1ccc(NC(=O)c2ccnc(C(C)(C)C#N)c2)cc1-c1ccnc(-c2ccnc(N)c2)n1` [Example 82], the IC50 is 1 to 10 µM in the assay with Miapaca-2 cells, 1 to 10 µM in the assay on WM3928 cells, at most 0.1 µM in assay [1] (setting [3]) and 0.5 to 1 µM in the assay with A375 cells.
For `Cc1ccc(NC(=O)c2ccnc(C(C)(C)C#N)c2)cc1-c1ccnc(-c2ccnc(NC(=O)CC#N)c2)c1` [Example 63], the IC50 in the assay on Miapaca-2 cells was 1 to 10 µM; with WM3928 cells, at most 0.1 µM; in assay [1] (setting [3]), at most 0.1 µM; in the assay on A375 cells it was 0.1 to 0.5 µM.
For `Cc1ccc(NC(=O)c2ccnc(C3(C#N)CC3)c2)cc1-c1cncc(-c2cc(NC(=O)C3CC3)ncn2)c1` [Example 395], the IC50 with Miapaca-2 cells was 0.1 to 0.5 µM; in the assay on WM3928 cells, at most 0.1 µM; in assay [1] (setting [2]), at most 0.1 µM; in the assay with A375 cells it was at most 0.1 µM.
Turning to `Cc1ccc(NC(=O)c2ccnc(C(F)(F)F)c2)cc1-c1cncc(-c2cc(NC(=O)C3CC3)ncn2)c1` [Example 397], the IC50 with Miapaca-2 cells was 0.1 to 0.5 µM; with WM3928 cells, at most 0.1 µM; in assay [1] (setting [2]), at most 0.1 µM; in the assay with A375 cells it was at most 0.1 µM.
With `COC(=O)Nc1cc(-c2cc(-c3cc(NC(=O)c4ccnc(C(C)(C)F)c4)ccc3C)cc(OCCO)n2)ccn1` [Example 401], the IC50 with Miapaca-2 cells was 1 to 10 µM; in the assay on WM3928 cells, at most 0.1 µM; in assay [1] (setting [2]), at most 0.1 µM; with A375 cells, at most 0.1 µM.
`CCOc1ncc(-c2cc(NC(=O)c3ccnc(C(F)(F)F)c3)ccc2C)cc1-c1ccnc(NC(=O)C2CC2)c1` [Example 71]: the IC50 is 1 to 10 µM with Miapaca-2 cells, at most 0.1 µM in the assay on WM3928 cells, 0.1 to 0.5 µM in assay [1] (setting [3]) and 0.1 to 0.5 µM in the assay on A375 cells.
In the case of `CNC(=O)c1cc(-c2cc(-c3cc(NC(=O)c4ccnc(C(F)(F)F)c4)ccc3C)ncn2)ccn1` [Example 85], the IC50 is 1 to 10 µM in the assay with Miapaca-2 cells, 1 to 10 µM in the assay with WM3928 cells, at most 0.1 µM in assay [1] (setting [3]) and 1 to 10 µM in the assay with A375 cells.
Regarding `CNC(=O)c1cc(-c2cc(-c3cc(NC(=O)c4ccnc(C(C)(C)C#N)c4)ccc3C)ccn2)ccn1` [Example 50], the IC50 in the assay on Miapaca-2 cells was 1 to 10 µM; in the assay with WM3928 cells it was at most 0.1 µM; in assay [1] (setting [3]) it was at most 0.1 µM; with A375 cells, at most 0.1 µM.
For the molecule `CC(=O)Nc1cc(-c2cc(-c3cc(NC(=O)c4ccnc(C(C)(C)C#N)c4)ccc3C)nc(C)n2)ccn1` [Example 89], the IC50 with Miapaca-2 cells was 1 to 10 µM; with WM3928 cells, at most 0.1 µM; in assay [1] (setting [3]) it was at most 0.1 µM; in the assay on A375 cells it was 0.1 to 0.5 µM.
As to `Cc1ccc(NC(=O)c2ccnc(C(F)(F)F)c2)cc1-c1ccnc(-c2ccnc(NC(=O)C3CC3)c2)c1` [Example 54], the IC50 with Miapaca-2 cells is 1 to 10 µM; with WM3928 cells it was at most 0.1 µM; in assay [1] (setting [3]), at most 0.1 µM; in the assay with A375 cells, 0.1 to 0.5 µM.
`CNC(=O)c1cc(-c2cc(-c3cc(C(=O)Nc4ccnc(C(C)(C)C#N)c4)ccc3C)ccn2)ccn1` [Example 74]: the IC50 in the assay on Miapaca-2 cells was in the range of 1 to 10 µM; in the assay on WM3928 cells, 0.1 to 0.5 µM; in assay [1] (setting [3]), 0.1 to 0.5 µM; in the assay with A375 cells, 0.1 to 0.5 µM.
As for `COC(=O)Nc1cc(-c2cnnc(-c3cc(NC(=O)c4ccnc(C(C)(C)F)c4)ccc3C)c2)ccn1` [Example 375], the IC50 is at most 0.1 µM in the assay on WM3928 cells, at most 0.1 µM in assay [1] (setting [2]) and 0.1 to 0.5 µM in the assay with A375 cells.
For the molecule `Cc1cc(F)c(NC(=O)c2ccnc(C3CC3)c2)cc1-c1cncc(-c2cc(NC(=O)C3CC3)ncn2)c1` [Example 398], the IC50 in the assay on Miapaca-2 cells is 0.5 to 1 µM; with WM3928 cells, at most 0.1 µM; in assay [1] (setting [2]), at most 0.1 µM; with A375 cells it was at most 0.1 µM.
For the molecule `Cc1ccc(NC(=O)c2ccnc(C(C)(C)F)c2)cc1-c1cncc(-c2ccnc(C(N)=O)c2)c1` [Example 380], the IC50 was at most 0.1 µM in the assay on WM3928 cells, at most 0.1 µM in assay [1] (setting [2]) and 0.1 to 0.5 µM in the assay with A375 cells.
As for `COCC(=O)Nc1cc(-c2nccc(-c3cc(NC(=O)c4ccnc(C(C)(C)C#N)c4)ccc3C)n2)ccn1` [Example 88], the IC50 in the assay with Miapaca-2 cells is 1 to 10 µM; in the assay with WM3928 cells, at most 0.1 µM; in assay [1] (setting [3]) it was at most 0.1 µM; in the assay on A375 cells, at most 0.1 µM.
On to `Cc1ccc(NC(=O)c2ccnc(C(C)(C)C#N)c2)cc1-c1ccnc(-c2ccnc(N)c2)c1` [Example 56], for which the IC50 was 1 to 10 µM in the assay with Miapaca-2 cells, 0.5 to 1 µM in the assay with WM3928 cells, at most 0.1 µM in assay [1] (setting [3]) and 0.1 to 0.5 µM with A375 cells.
As to `Cc1ccc(NC(=O)c2ccnc(C(C)(C)F)c2)cc1-c1cc(-c2ccnc3[nH]ncc23)cnn1` [Example 400], the IC50 with WM3928 cells was 1 to 10 µM; in assay [1] (setting [2]), at most 0.1 µM; in the assay on A375 cells, 1 to 10 µM.
With `Cc1cc(F)c(NC(=O)c2ccnc(C(C)(C)F)c2)cc1-c1cncc(-c2ccnc(NC(=O)C3CC3)c2)c1` [Example 399], the IC50 (with WM3928 cells; in assay [1] (setting [2]); in the assay with A375 cells) was at most 0.1 µM in each case.
Regarding `CNC(=O)c1cc(-c2cncc(-c3cc(NC(=O)c4ccnc(C(C)(C)F)c4)ccc3C)c2)ncn1` [Example 379], the IC50 in the assay on Miapaca-2 cells was 1 to 10 µM; with WM3928 cells it was at most 0.1 µM; in assay [1] (setting [2]) it was at most 0.1 µM; in the assay with A375 cells it was at most 0.1 µM.
For `Cc1ccc(NC(=O)[C@H]2CCO[C@@H](C(C)C)C2)cc1-c1cc(-c2ccnc(NC(=O)C3CC3)c2)cnn1` [Example 388], the results for the IC50 (in the assay with WM3928 cells; in assay [1] (setting [2]); in the assay on A375 cells) were 0.5 to 1 µM, at most 0.1 µM and 1 to 10 µM, respectively.
Turning to `Cc1ccc(NC(=O)c2ccnc(C(F)(F)F)c2)cc1-c1cccc(-c2cc(NC(=O)C3CC3)ncn2)c1` [Example 80], the IC50 is 1 to 10 µM in the assay with Miapaca-2 cells, 0.1 to 0.5 µM in the assay on WM3928 cells, at most 0.1 µM in assay [1] (setting [3]) and at most 0.1 µM in the assay with A375 cells.
`Cc1ccc(NC(=O)c2ccnc(C(C)(C)F)c2)cc1-c1cncc(-c2cc(NC(=O)C3CC3)ncn2)c1` [Example 394]: the IC50 is 0.1 to 0.5 µM with Miapaca-2 cells, at most 0.1 µM in the assay with WM3928 cells, at most 0.1 µM in assay [1] (setting [2]) and at most 0.1 µM with A375 cells.
As for `CNC(=O)c1cc(-c2cncc(-c3cc(NC(=O)c4ccnc(C(C)(C)C#N)c4)ccc3C)n2)ccn1` [Example 86], the IC50 in the assay on Miapaca-2 cells was 1 to 10 µM; with WM3928 cells it was at most 0.1 µM; in assay [1] (setting [3]), at most 0.1 µM; in the assay on A375 cells it was at most 0.1 µM.
On to `COC(=O)Nc1cc(-c2ccnc(-c3cc(NC(=O)c4ccnc(C(C)(C)F)c4)ccc3C)n2)ccn1` [Example 403], for which the IC50 was at most 0.1 µM with WM3928 cells, at most 0.1 µM in assay [1] (setting [2]) and 0.1 to 0.5 µM in the assay with A375 cells.
Turning to `CNC(=O)c1cc(-c2ccnc(-c3cc(NC(=O)c4ccnc(C(C)(C)C#N)c4)ccc3C)c2)ccn1` [Example 376], the values for the IC50 (with WM3928 cells; in assay [1] (setting [2]); with A375 cells) were 0.1 to 0.5 µM, at most 0.1 µM and at most 0.1 µM, respectively.
On to `Cc1ccc(NC(=O)c2cc(C3CC3)n(C)n2)cc1-c1cc(-c2ccnc(NC(=O)C3CC3)c2)cnn1` [Example 377], for which the IC50 in the assay with WM3928 cells was at most 0.1 µM; in assay [1] (setting [2]), at most 0.1 µM; in the assay on A375 cells, 0.1 to 0.5 µM.
